Experimental data reported in patent US8193364B2, “Insecticidal N-substituted (6-haloalkylpyridin-3-yl)-alkyl sulfoximines” (Dow AgroSciences, LLC., priority 2006, dated 2012).

Experiments:
Assay type in all cases: in vivo
[1] = tested on: Green Leafhopper (Nephotettix sp.); assay: Green leafhopper foliar spray assay on rice
Procedure: (§1) A foliar spray assay and a root-uptake systemic assay were performed on both brown planthopper and green leafhopper. Four-week-old rice seedlings were submerged in 3-cm depth of water in the bottom portion (high 5 cm, diameter 3 cm) of a 2-part glass cylinder (high 18 cm, diameter 3 cm). A metal screen was used to hold the seedlings within the bottom portion. Scotch tape was used to bind the two portions of the cylinder after setting up the seedlings. A metal cap was used to cover the cylinder. There were 4 cylinders for each treatment. The test compound was dissolved in acetone to make a 10,000 ppm stock solution. For the foliar spray assay, this stock solution was diluted with water to make 10, 2.5, 0.31, 0.08 and 0.02 ppm test solutions. A volume of 0.5 ml of a test solution or solvent blank as check was sprayed into the glass cylinder. For systemic test, the stock solution was incorporated at final test concentrations of 10, 2.5, 0.31, 0.08 and 0.02 ppm in the water in which rice seedlings were submerged. In both foliar spray and systemic tests, five laboratory-reared 3rd instar nymphs of brown planthopper or green leafhopper were introduced into each cylinder 3 hr after insecticide application. The treated test units were kept in a growth chamber with conditions set as followings: Temperature 28±0.5° C.; Relative humidity 70±0.5%; Photoperiod […].

[2] = tested on: Cotton Aphid (Aphis gossypii); assay: Cotton aphid foliar spray assay on squash; conditions: 72 h, read-out: % Control of cotton aphid on squash (foliar spray)
Procedure: Squash with fully expanded cotyledon leaves were trimmed to one cotyledon per plant and infested with cotton aphid (wingless adult and nymph) 1 day prior to chemical application. Each plant was examined before chemical application to ensure proper infestation (ca. 30-70 aphids per plant). Compounds (2 mg) were dissolved in 2 ml of acetone:methanol (1:1) solvent, forming stock solutions of 1000 ppm. The stock solutions were then diluted with a diluent consisting 80 parts of 0.025% Tween 20 in H2O and 20 parts of acetone:methanol (1:1). A hand-held Devilbiss sprayer was used to apply the test solutions until runoff to both sides of the squash cotyledon leaves. Four plants (4 replications) were used for each concentration of each compound. Reference plants (solvent check) were sprayed with the diluent only. Treated plants were held in a holding room for 3 days at approximately 23° C. and 40% RH before the number of live aphids on each plant was recorded. Insecticidal activity was measured by Corrected % Control using Abbott's correction formula and presented in Table 1: Corrected % Control=100*(X−Y)/X • where X=No. of live aphids on solvent check plants • Y=No. of live aphids on treated plants

[3] = tested on: Eastern Subterranean Termite (Reticulitermes flavipes); assay: Eastern subterranean termite filter paper assay
Procedure: Activity of Compound 2 was evaluated for its activity on Eastern subterranean termite. Technical material of the test compound was formulated in acetone on a wt/wt basis to deliver 1000, 500, 200, 50, 12.5, 3.12 and 0.78 ppm to 42.5 mm Whatman No. 1 filter papers per 200 ul of pipetted solution. Each test concentration was applied to six filter papers (6 reps). Six acetone-only control units and six DI water-only control units were also prepared. The filter papers were dried overnight in the fume hood before they were placed into 60×15 mm Fisher Brand plastic Petri dishes. A volume of 200 ul DI water was pipetted onto each filter paper at the time of test set-up, just prior to infesting with termites. Ten worker termites were added to each Petri dish and covered. The infested Petri dishes were put in the laboratory Conviron at 28° C. and 60% RH. Termite mortality was recorded at 1, 2, 4, 7, and 10 days after infestation (DAI). Throughout the duration of the test, an average of 150 ul of DI water was added daily to the filter papers to retain moisture.

[4] = tested on: Cat Flea (Ctenocephalides felis); assay: Cat flea filter wool assay; conditions: 48-hour observation
Procedure: Compound 2 was evaluated in a dose response series to establish the range of activity of the test compound. Technical material was dissolved in acetone and diluted with the same solvent to obtain the test concentrations. Bioassays were conducted by treating polyester aquarium filter wool with 1.0 ml of the test solution, thoroughly saturating the substrate and allowing it to dry for at least 1 hour. The dry filter wool was then placed into 10 cm plastic Petri dishes and covered with the lid. Each treatment was replicated 5 times. Approximately 15 unfed cat flea adults were placed into each replicate of each dosage being evaluated. Mortality was assessed at 2, 8, 24 and 48 hours after introduction of the fleas into the test system. The mean percent mortality for each dosage group and time interval was determined and results from the 48-hour observation are presented in Table 9.

[5] = tested on: Green Leafhopper (Nephotettix sp.); assay: Green leafhopper root-uptake systemic assay on rice
Procedure: as §1

[6] = tested on: Brown Planthopper (Nilaparvata lugens); assay: Brown planthopper foliar spray assay on rice
Procedure: as §1

[7] = tested on: Brown Planthopper (Nilaparvata lugens); assay: Brown planthopper root-uptake systemic assay on rice
Procedure: as §1

With `CC(c1ccc(C(F)(F)F)nc1)S(C)(=O)=NC#N` (stereo not drawn) [Compound 2, [1-(6-trifluoromethylpyridin-3-yl)ethyl](methyl)-oxido-λ^4-sulfanylidenecyanamide] the “% Control at ppm against green leafhopper” value ([1]; 0.02 ppm) was “D (60-69)”, the “% Control at ppm against green leafhopper” value ([1]; 0.08 ppm) was “A (90-100)” and the “% Control at ppm against green leafhopper” value ([1]; 0.31 ppm) was “A (90-100)”. The “% Control at ppm against green leafhopper” value ([1]; 2.5 ppm) was “A (90-100)”, the “% Control at ppm against green leafhopper” value ([1]; 10 ppm) was “A (90-100)” and the pest or weed control at 0.049 ppm [2] was 90 to 100%. For the same compound, the pest or weed control at 0.195 ppm [2] was 90 to 100%, the pest or weed control at 0.781 ppm [2] was 90 to 100% and the pest or weed control at 3.13 ppm [2] was 90 to 100%. The mortality at 0.78 ppm ([3]; 1 DAI) was 7%, the mortality at 0.78 ppm ([3]; 2 DAI) was 17% and the mortality at 0.78 ppm ([3]; 4 DAI) was 58%. For the same compound, the mortality at 0.78 ppm ([3]; 7 DAI) was 73%, the mortality at 0.78 ppm ([3]; 10 DAI) was 80% and the mortality at 3.13 ppm ([3]; 1 DAI) was 25%. The mortality at 3.13 ppm ([3]; 2 DAI) was 48%, the mortality at 3.13 ppm ([3]; 4 DAI) was 67% and the mortality at 3.13 ppm ([3]; 7 DAI) was 83%. For the same compound, the mortality at 3.13 ppm ([3]; 10 DAI) was 87%, the mortality at 12.5 ppm ([3]; 1 DAI) was 48% and the mortality at 12.5 ppm ([3]; 2 DAI) was 67%. For the same compound, the mortality at 12.5 ppm ([3]; 4 DAI) was 90%, the mortality at 12.5 ppm ([3]; 7 DAI) was 100% and the mortality at 12.5 ppm ([3]; 10 DAI) was 100%. For the same compound, the mortality at 50 ppm ([3]; 1 DAI) was 55%, the mortality at 50 ppm ([3]; 2 DAI) was 72% and the mortality at 50 ppm ([3]; 4 DAI) was 98%. It also gave a mortality at 50 ppm ([3]; 7 DAI) of 100%, a mortality at 50 ppm ([3]; 10 DAI) of 100% and a mortality at 200 ppm ([3]; 1 DAI) of 55%. The mortality at 200 ppm ([3]; 2 DAI) was 72%, the mortality at 200 ppm ([3]; 4 DAI) was 80% and the mortality at 200 ppm ([3]; 7 DAI) was 100%. The mortality at 200 ppm ([3]; 10 DAI) was 100%, the mortality at 500 ppm ([3]; 1 DAI) was 63% and the mortality at 500 ppm ([3]; 2 DAI) was 82%. The mortality at 500 ppm ([3]; 4 DAI) was 98%, the mortality at 500 ppm ([3]; 7 DAI) was 100% and the mortality at 500 ppm ([3]; 10 DAI) was 100%. It also gave a mortality at 1000 ppm ([3]; 1 DAI) of 87%, a mortality at 1000 ppm ([3]; 2 DAI) of 90% and a mortality at 1000 ppm ([3]; 4 DAI) of 100%. The mortality at 1000 ppm ([3]; 7 DAI) was 100%, the mortality at 1000 ppm ([3]; 10 DAI) was 100% and the mortality at 5 ppm ([4]; 5 ppm) was 18%. The mortality at 50 ppm ([4]; 50 ppm) was 25%, the mortality at 500 ppm ([4]; 500 ppm) was 40% and the mortality at 5000 ppm ([4]; 5,000 ppm) was 57%. For the same compound, the “% Control at ppm against green leafhopper” value ([5]; 0.02 ppm in water) was “D (60-69)”, the “% Control at ppm against green leafhopper” value ([5]; 0.08 ppm in water) was “B (80-89)” and the “% Control at ppm against green leafhopper” value ([5]; 0.31 ppm in water) was “A (90-100)”. The “% Control at ppm against green leafhopper” value ([5]; 2.5 ppm in water) was “A (90-100)”, the “% Control at ppm against green leafhopper” value ([5]; 10 ppm in water) was “A (90-100)” and the “% Control at ppm against brown planthopper” value ([6]; 0.02 ppm) was “F (Less than 50)”. For the same compound, the “% Control at ppm against brown planthopper” value ([6]; 0.08 ppm) was “E (50-59)”, the “% Control at ppm against brown planthopper” value ([6]; 0.31 ppm) was “A (90-100)” and the “% Control at ppm against brown planthopper” value ([6]; 2.5 ppm) was “A (90-100)”. For the same compound, the “% Control at ppm against brown planthopper” value ([6]; 10 ppm) was “A (90-100)”, the “% Control at ppm against brown planthopper” value ([7]; 0.02 ppm in water) was “F (Less than 50)” and the “% Control at ppm against brown planthopper” value ([7]; 0.08 ppm in water) was “C (70-79)”. The “% Control at ppm against brown planthopper” value ([7]; 0.31 ppm in water) was “A (90-100)”, the “% Control at ppm against brown planthopper” value ([7]; 2.5 ppm in water) was “A (90-100)” and the “% Control at ppm against brown planthopper” value ([7]; 10 ppm in water) was “A (90-100)”.
